The values below come from patent US6967196B1, “Sulfonamide compounds and uses thereof” (Bristol-Myers Squibb Company, priority 1999, dated 2005).

One test relates to amyloid β production in transfected H4 (human neuroglioma) cells stably expressing APP constructs. The experiment in a line: In vitro cell-based assay of inhibitors of amyloid β production (ELISA). The settings on record: transfected H4 cells stably expressing APP; approx. 16 h incubation; amyloid β in medium by ELISA; read-out: ACTIVITY (IC50, inhibition of amyloid β production). A digest of the protocol: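 Aβ secreted into the medium was read by sandwich ELISA (monoclonal capture for the Aβ C-terminus, polyclonal detection for the N-terminus) and calibrated on a standard curve. Before this, APP-expressing H4 cells were exposed to compound for ~16 h at an initial 10-100 μM, with actives then retested in dose-response.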
A general note: In an ELISA, binding on a coated surface is turned into a signal by an enzyme label.
Turning to “N-{2-[2-(1-{[(4-chlorophenyl)sulfonyl]-2,5-difluoroanilino}ethyl)phenoxy]ethyl}-N-ethyl-2-(2-thienyl)acetamide [Example 705]”, the IC50 fell in the range of 0.1 to 0.5 µM.

Take “N-{2-[2-(1-{[(4-chlorophenyl)sulfonyl]-2,5-difluoroanilino}ethyl)phenoxy]ethyl}-N-ethyl-3-methylbutanamide [Example 694]”: the IC50 lay in the range of 0.1 to 0.5 µM.

For “N-{2-[2-(1-{[(4-chlorophenyl)sulfonyl]-2,5-difluoroanilino}ethyl)phenoxy]ethyl}-N-ethylbutanamide [Example 646]”, the IC50 is 0.1 to 0.5 µM.

For the substance “N-{2-[2-(1-{[(4-chlorophenyl)sulfonyl]-2,5-difluoroanilino}ethyl)phenoxy]ethyl}-N-ethylcyclopentanecarboxamide [Example 721]”, the IC50 was 0.1 to 0.5 µM.

“N-{2-[2-(1-{[(4-chlorophenyl)sulfonyl]-2,5-difluoroanilino}ethyl)phenoxy]ethyl}-N-methylpentanamide [Example 664]”: the IC50 was in the range of 0.1 to 0.5 µM. “N-{2-[2-(1-{[(4-chlorophenyl)sulfonyl]-2,5-difluoroanilino}ethyl)phenoxy}ethyl}-N-ethyl-3-methyl-2-butenamide [Example 642]”: the IC50 lay within 0.1 to 0.5 µM. Still for that read-out and setting: for “N-{3-[2-(1-{3-[2-(1-{[(4-chlorophenyl)sulfonyl]-2,5-difluoroanilino}ethyl)phenoxy]butyl}-2-cyclohexyl-N-methylacetamide [Example 686]” the value was 0.1 to 0.5 µM. Regarding “N-{3-[2-(1-{[(4-chlorophenyl)sulfonyl]-2,5-difluoroanilino}ethyl)phenoxy]butyl}-3-cyclopentyl-N-methylpropanamide [Example 712]”, the IC50 was in the range of 0.1 to 0.5 µM. On to “N-{3-[2-(1-{[(4-chlorophenyl)sulfonyl]-2,5-difluoroanilino}ethyl)phenoxy]butyl}-N-ethyl-2-furamide [Example 708]”, for which the IC50 was 0.1 to 0.5 µM.

As for “N-{3-[2-(1-{[(4-chlorophenyl)sulfonyl]-2,5-difluoroanilino}ethyl)phenoxy]ethyl}-N-methyl-2-(trifluoromethyl)benzamide [Example 697]”, the IC50 was in the range of 0.1 to 0.5 µM.

As to “N-{3-[2-(1-{[(4-chlorophenyl)sulfonyl]-2,5-difluoroanilino}ethyl)phenoxy]propyl}-2,2-diphenylacetamide [Example 784]”, the IC50 lay in the range of 0.1 to 0.5 µM. With “N-{3-[2-(1-{[(4-chlorophenyl)sulfonyl]-2,5-difluoroanilino}ethyl)phenoxy]propyl}-2,3,4,5,6-pentafluorobenzamide [Example 742]”, the IC50 is 0.1 to 0.5 µM. For “N-{3-[2-(1-{[(4-chlorophenyl)sulfonyl]-2,5-difluoroanilino}ethyl)phenoxy]propyl}-2,3,4,5-tetrafluoro-N-methylbenzamide [Example 778]”, the IC50 was 0.1 to 0.5 µM.

Consider “N-{3-[2-(1-{[(4-chlorophenyl)sulfonyl]-2,5-difluoroanilino}ethyl)phenoxy]propyl}-2,3,4-trifluoro-N-methylbenzamide [Example 670]”, for which the IC50 lay within 0.1 to 0.5 µM. For “N-{3-[2-(1-{[(4-chlorophenyl)sulfonyl]-2,5-difluoroanilino}ethyl)phenoxy]propyl}-2,4,5-trifluoro-N-methylbenzamide [Example 710]”, the IC50 lay within 0.1 to 0.5 µM.

In the case of “N-{3-[2-(1-{[(4-chlorophenyl)sulfonyl]-2,5-difluoroanilino}ethyl)phenoxy]propyl}-2,4-dimethoxy-N-methylbenzamide [Example 753]”, the 50% inhibitory concentration (IC50) lay within 0.1 to 0.5 µM.

Turning to “N-{3-[2-(1-{[(4-chlorophenyl)sulfonyl]-2,5-difluoroanilino}ethyl)phenoxy]propyl}-2,5-bis(trifluoromethyl)benzamide [Example 736]”, the IC50 is 0.1 to 0.5 µM. On the same count and under the same terms, the result for “N-{3-[2-(1-{[(4-chlorophenyl)sulfonyl]-2,5-difluoroanilino}ethyl)phenoxy]propyl}-2,5-difluoro-N-methylbenzamide [Example 727]” reads 0.1 to 0.5 µM; that for “N-{3-[2-(1-{[(4-chlorophenyl)sulfonyl]-2,5-difluoroanilino}ethyl)phenoxy]propyl}-2,6-difluoro-N-methylbenzamide [Example 755]”, 0.1 to 0.5 µM; that for “N-{3-[2-(1-{[(4-chlorophenyl)sulfonyl]-2,5-difluoroanilino}ethyl)phenoxy]propyl}-2-phenylcyclopropanecarboxamide [Example 789]”, 0.1 to 0.5 µM. On the same count and under the same terms, the result for “N-{3-[2-(1-{[(4-chlorophenyl)sulfonyl]-2,5-difluoroanilino}ethyl)phenoxy]propyl}-3,4,5-trimethoxybenzamide [Example 651]” reads 0.1 to 0.5 µM; that for “N-{3-[2-(1-{[(4-chlorophenyl)sulfonyl]-2,5-difluoroanilino}ethyl)phenoxy]propyl}-3,4-dimethoxy-N-methylbenzamide [Example 643]”, 0.1 to 0.5 µM. Same read-out and setting: for “N-{3-[2-(1-{[(4-chlorophenyl)sulfonyl]-2,5-difluoroanilino}ethyl)phenoxy]propyl}-3,5-dimethoxy-N-methylbenzamide [Example 802]” the value was 0.1 to 0.5 µM. For “N-{3-[2-(1-{[(4-chlorophenyl)sulfonyl]-2,5-difluoroanilino}ethyl)phenoxy]propyl}-3-fluoro-N-methylbenzamide [Example 699]”, the IC50 is 0.1 to 0.5 µM. As to “N-{3-[2-(1-{[(4-chlorophenyl)sulfonyl]-2,5-difluoroanilino}ethyl)phenoxy]propyl}-3-methoxy-N-methylbenzamide [Example 786]”, the IC50 was in the range of 0.1 to 0.5 µM.

Turning to “N-{3-[2-(1-{[(4-chlorophenyl)sulfonyl]-2,5-difluoroanilino}ethyl)phenoxy]propyl}-3-methoxybenzamide [Example 690]”, the IC50 is 0.1 to 0.5 µM. Still for that read-out and setting: for “N-{3-[2-(1-{[(4-chlorophenyl)sulfonyl]-2,5-difluoroanilino}ethyl)phenoxy]propyl}-3-nitrobenzamide [Example 723]” the value was 0.1 to 0.5 µM. With “N-{3-[2-(1-{[(4-chlorophenyl)sulfonyl]-2,5-difluoroanilino}ethyl)phenoxy]propyl}-4-fluoro-N-methylbenzamide [Example 654]”, the IC50 lay within 0.1 to 0.5 µM. As for “N-{3-[2-(1-{[(4-chlorophenyl)sulfonyl]-2,5-difluoroanilino}ethyl)phenoxy]propyl}-4-fluorobenzamide [Example 679]”, the IC50 was in the range of 0.1 to 0.5 µM. On to “N-{3-[2-(1-{[(4-chlorophenyl)sulfonyl]-2,5-difluoroanilino}ethyl)phenoxy]propyl}-4-iodo-N-methylbenzamide [Example 719]”, for which the IC50 lay in the range of 0.1 to 0.5 µM.

Consider “N-{3-[2-(1-{[(4-chlorophenyl)sulfonyl]-2,5-difluoroanilino}ethyl)phenoxy]propyl}-4-methoxy-N-methylbenzamide [Example 652]”, for which the IC50 lay within 0.1 to 0.5 µM.

Staying with this test, now noted: transfected H4 cells stably expressing APP; approximately 16 hours incubation; amyloid β in medium by ELISA; Table B; read-out: ACTIVITY (IC50, inhibition of amyloid β production).
Consider “N-{2-[2-(1-{[(4-chlorophenyl)sulfonyl]-2,5-difluoroanilino}ethyl)phenoxy]ethyl}-N-ethylpropanamide [Example 504]”, for which the IC50 lay within 0.1 to 0.5 µM.

With “N-{2-[2-(1-{[(4-chlorophenyl)sulfonyl]-2,5-difluoroanilino}ethyl)phenoxy]ethyl}-N-methylcyclohexanecarboxamide [Example 511]”, the IC50 lay in the range of 0.1 to 0.5 µM.

Still in this test, the particulars now being: transfected H4 cells stably expressing APP; approximately 16 hours incubation; amyloid β in medium by ELISA; read-out: ACTIVITY (IC50, inhibition of amyloid β production).
With “N-{2-[2-(1-{[(4-chlorophenyl)sulfonyl]-2,5-difluoroanilino}ethyl)phenoxy]ethyl}-N-ethylacrylamide [Example 949]”, the IC50 is greater than 0.5 µM.

In the case of “N-{2-[2-(1-{[(4-chlorophenyl)sulfonyl]-2,5-difluoroanilino}ethyl)phenoxy]ethyl}-N-ethyltetradecanamide [Example 928]”, the IC50 is greater than 0.5 µM. On to “N-{2-[2-(1-{[(4-chlorophenyl)sulfonyl]-2,5-difluoroanilino}ethyl)phenoxy]ethyl}-N-methyltetradecanamide [Example 854]”, for which the IC50 fell in the range of 0.1 to 0.5 µM. Consider “N-{3-[2-(1-{[(4-chlorophenyl)sulfonyl]-2,5-difluoroanilino}ethyl)phenoxy]ethyl}-N-methyl-3,5-bis(trifluoromethyl)benzamide [Example 931]”, for which the IC50 was greater than 0.5 µM. Same read-out and setting: the result for “N-{3-[2-(1-{[(4-chlorophenyl)sulfonyl]-2,5-difluoroanilino}ethyl)phenoxy]propyl}-2,3,4,5 tetrafluorobenzamide [Example 863]” reads 0.1 to 0.5 µM. With “N-{3-[2-(1-{[(4-chlorophenyl)sulfonyl]-2,5-difluoroanilino}ethyl)phenoxy]propyl}-2,3,4,5,6-pentafluoro-N-methylbenzamide [Example 828]”, the IC50 was 0.1 to 0.5 µM. On the same count and under the same terms, for “N-{3-[2-(1-{[(4-chlorophenyl)sulfonyl]-2,5-difluoroanilino}ethyl)phenoxy]propyl}-2-naphthamide [Example 808]” the value was 0.1 to 0.5 µM; for “N-{3-[2-(1-{[(4-chlorophenyl)sulfonyl]-2,5-difluoroanilino}ethyl)phenoxy]propyl}-3,5-difluorobenzamide [Example 815]”, 0.1 to 0.5 µM; for “N-{3-[2-(1-{[(4-chlorophenyl)sulfonyl]-2,5-difluoroanilino}ethyl)phenoxy]propyl}-4-(trifluoromethoxy)benzamide [Example 920]”, greater than 0.5 µM.

For the substance “N-{3-[2-(1-{[(4-chlorophenyl)sulfonyl]-2,5-difluoroanilino}ethyl)phenoxy]propyl}-4-iodobenzamide [Example 824]”, the IC50 was in the range of 0.1 to 0.5 µM. Same read-out and setting: for “N-{3-[2-(1-{[(4-chlorophenyl)sulfonyl]-2,5-difluoroanilino}ethyl)phenoxy]propyl}-4-methoxybenzamide [Example 819]” the value was 0.1 to 0.5 µM.

Broadly, the IC50 is the concentration that gives 50% inhibition.
